Target: T1, human ALK5 (kinase domain, ALK5 T204D) (Homo sapiens, UniProt P36897, T204D)
T1 construct: The kinase domain of human ALK5 (amino acids 200-503); made in house; host or cells: insect cells (baculovirus)
T1 sequence (P36897 200-503 T204D): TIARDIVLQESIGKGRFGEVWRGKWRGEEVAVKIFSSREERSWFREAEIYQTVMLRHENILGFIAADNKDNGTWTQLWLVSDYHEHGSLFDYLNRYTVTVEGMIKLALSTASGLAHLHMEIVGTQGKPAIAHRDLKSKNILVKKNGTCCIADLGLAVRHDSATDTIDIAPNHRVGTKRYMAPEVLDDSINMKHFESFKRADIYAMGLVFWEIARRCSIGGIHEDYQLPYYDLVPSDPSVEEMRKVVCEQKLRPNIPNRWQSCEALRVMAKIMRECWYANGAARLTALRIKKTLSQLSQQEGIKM
Test: ALK5 kinase assay ([33P] phosphate incorporation into casein)
Format: biochemical
Details: casein substrate, 1 μM unlabelled ATP
Summary of the method: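 His-tagged human ALK5 T204D kinase domain (aa 200-503, constitutively active, baculovirus/insect-cell expressed), 50 ng/well, preincubated 10 min with compound and dephosphorylated casein (200 μg/well) in Tris pH 7.4/MgCl2/MnCl2. Reaction started with 1 μM ATP plus [33P]ATP, 50 min at room temperature, EDTA-stopped; casein-bound 33P counted by scintillation after filter capture.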

Point of comparison: `Cc1cccc(-c2nc(-c3cncc(-c4cccc(C(C)(C)N)c4)c3)c3cc[nH]c3n2)n1` [Example 85, 1-Methyl-1-(3-{5-[2-(6-methyl-pyridin-2-yl)-7H-pyrrolo[2,3-d]pyrimidin-4-yl]-pyridin-3-yl}-phenyl)-ethylamine], IC50 99 nM. Against it:
- Cc1cccc(-c2cc(-c3cncc(-c4cccc(CN)c4)c3)c3cc[nH]c3n2)n1 [Example 86, 3-{5-[6-(6-Methyl-pyridin-2-yl)-1H-pyrrolo[2,3-b]pyridin-4-yl]-pyridin-3-yl}-benzylamine] — 12-fold lower, 8 nM
- Cc1cccc(-c2nc(-c3cncc(-c4ccc(C5CNCCN5)cc4)c3)c3cc[nH]c3n2)n1 (stereo not drawn) [Example 87, 2-(6-Methyl-pyridin-2-yl)-4-[5-(4-piperazin-2-yl-phenyl)-pyridin-3-yl]-7H-pyrrolo[2,3-d]pyrimidine] — 9.9-fold lower, 10 nM
- Cc1cccc(-c2cc(-c3cncc(-c4ccc(CN5CCOCC5)cc4)c3)c3cc[nH]c3n2)n1 [Example 88, 6-(6-Methyl-pyridin-2-yl)-4-[5-(4-morpholin-4-ylmethyl-phenyl)-pyridin-3-yl]-1H-pyrrolo[2,3-b]pyridine] — 5-fold lower, 20 nM
- Cc1cccc(-c2cc(-c3cncc(C4=CCCC4)c3)c3cc[nH]c3n2)n1 [Example 89, 4-(5-Cyclopent-1-enyl-pyridin-3-yl)-6-(6-methyl-pyridin-2-yl)-1H-pyrrolo[2,3-b]pyridine] — within 1.5-fold, 79 nM
- Cc1cccc(-c2cc(-c3cncc(-c4cccc(CN5CCOCC5)c4)c3)c3cc[nH]c3n2)n1 [Example 90, 6-(6-Methyl-pyridin-2-yl)-4-[5-(3-morpholin-4-ylmethyl-phenyl)-pyridin-3-yl]-1H-pyrrolo[2,3-b]pyridine] — 1.5-fold lower, 66 nM
- Cc1cccc(-c2cc(-c3cncc(-c4cncc(CN(C)C)c4)c3)c3cc[nH]c3n2)n1 [Example 91, Dimethyl-{5′-[6-(6-methyl-pyridin-2-yl)-1H-pyrrolo[2,3-b]pyridin-4-yl]-[3,3′]bipyridinyl-5-ylmethyl}-amine] — within 1.5-fold, 109 nM
- CNCc1cncc(-c2cncc(-c3cc(-c4cccc(C)n4)nc4[nH]ccc34)c2)c1 [Example 92, Methyl-{5′-[6-(6-methyl-pyridin-2-yl)-1H-pyrrolo[2,3-b]pyridin-4-yl]-[3,3′]bipyridinyl-5-ylmethyl}-amine] — within 1.5-fold, 103 nM
- Cc1cccc(-c2cc(-c3cncc(-c4cccc(CO)c4)c3)c3cc[nH]c3n2)n1 [Example 93, (3-{5-[6-(6-Methyl-pyridin-2-yl)-1H-pyrrolo[2,3-b]pyridin-4-yl]-pyridin-3-yl}-phenyl)-methanol] — 4.1-fold lower, 24 nM
- CSc1cncc(-c2nc(-c3cccc(C)n3)nc3[nH]ccc23)c1 [Example 94, 2-(6-Methyl-pyridin-2-yl)-4-(5-methylsulfanyl-pyridin-3-yl)-7H-pyrrolo[2,3-d]pyrimidine] — 1.9-fold higher, 191 nM
- Cc1cccc(-c2nc(-c3cncc(N)c3)c3cc[nH]c3n2)n1 [Example 95, 5-[2-(6-Methyl-pyridin-2-yl)-7H-pyrrolo[2,3-d]pyrimidin-4-yl]-pyridin-3-ylamine] — 2.6-fold higher, 259 nM
- Cc1cncc(-c2nc(-c3cccc(C)n3)nc3[nH]ccc23)c1 [Example 96, 4-(5-Methyl-pyridin-3-yl)-2-(6-methyl-pyridin-2-yl)-7H-pyrrolo[2,3-d]pyrimidine] — 7.6-fold higher, 751 nM
- Cc1cccc(-c2nc(-c3cncc(-c4ccc(CN5CC[C@@H](N(C)C)C5)cc4)c3)c3cc[nH]c3n2)n1 [Example 97, Dimethyl-[(R)-1-(4-{5-[2-(6-methyl-pyridin-2-yl)-7H-pyrrolo[2,3-d]pyrimidin-4-yl]-pyridin-3-yl}-benzyl)-pyrrolidin-3-yl]-amine] — 12-fold lower, 8 nM
- Cc1cccc(-c2nc(-c3cncc(C#N)c3)c3cc[nH]c3n2)n1 [Example 98, 5-[2-(6-Methyl-pyridin-2-yl)-7H-pyrrolo[2,3-d]pyrimidin-4-yl]-nicotinonitrile] — 8.1-fold higher, 799 nM
- Cc1cccc(-c2nc(-c3cncc(-c4cccc(C5CNCCN5)c4)c3)c3cc[nH]c3n2)n1 (stereo not drawn) [Example 99, 2-(6-Methyl-pyridin-2-yl)-4-[5-(3-piperazin-2-yl-phenyl)-pyridin-3-yl]-7H-pyrrolo[2,3-d]pyrimidine] — 7.1-fold lower, 14 nM

— patent US8314112B2 (Novartis AG, priority 2008, dated 2012)
